Source: PubChem BioAssay (NCI)
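Tested at 5 concentrations; 48 h exposure; 96-well plates; endpoints linearly interpolated, else capped at highest concentration. Here, GI50 denotes the concentration required for 50% inhibition of growth. The concentration for full growth arrest is given as TGI.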

How the values were obtained:
Test in all cases: inhibition of tumour cell growth, NCI panel, 48 h
[1] = tested on: ACHN renal
[2] = tested on: BT-549 breast
[3] = tested on: CAKI-1 renal
[4] = tested on: CCRF-CEM leukemia
[5] = tested on: COLO 205 colon
[6] = tested on: DU-145 prostate
[7] = tested on: HCC-2998 colon
[8] = tested on: HCT-15 colon
[9] = tested on: HL-60(TB) leukemia
[10] = tested on: HOP-62 NSCLC
[11] = tested on: HOP-92 NSCLC
[12] = tested on: HS 578T breast
[13] = tested on: HT29 colon
[14] = tested on: IGROV1 ovarian
[15] = tested on: K-562 leukemia
[16] = tested on: KM12 colon
[17] = tested on: M14 melanoma
[18] = tested on: MALME-3M melanoma
[19] = tested on: MCF7 breast
[20] = tested on: MDA-MB-231 breast
[21] = tested on: MDA-MB-435
[22] = tested on: MOLT-4 leukemia
[23] = tested on: NCI-H226 lung
[24] = tested on: NCI-H23 lung
[25] = tested on: NCI-H460 lung
[26] = tested on: NCI/ADR-RES ovarian
[27] = tested on: OVCAR-4 ovarian
[28] = tested on: OVCAR-5 ovarian
[29] = tested on: PC-3 prostate
[30] = tested on: RPMI-8226 leukemia
[31] = tested on: SF-295 CNS
[32] = tested on: SF-539 CNS
[33] = tested on: SK-MEL-2 melanoma
[34] = tested on: SK-MEL-28 melanoma
[35] = tested on: SK-MEL-5 melanoma
[36] = tested on: SK-OV-3 ovarian
[37] = tested on: SN12C renal
[38] = tested on: SNB-75 CNS
[39] = tested on: SR leukemia
[40] = tested on: SW-620 colon
[41] = tested on: T-47D breast
[42] = tested on: TK-10 renal
[43] = tested on: U251 CNS
[44] = tested on: UACC-257 melanoma
[45] = tested on: UACC-62 melanoma
[46] = tested on: UO-31 renal

COc1ccc(-c2ccc(-c3ccc(C(=N)N)c(F)c3)s2)cc1
GI50 [1]: 209 nM
TGI [1]: 448 nM
GI50 [2]: 1570 nM
TGI [2]: 3.24 µM
GI50 [3]: 1540 nM
TGI [3]: 2990 nM
GI50 [4]: 286 nM
TGI [4]: 853 nM
GI50 [5]: 184 nM
TGI [5]: 359 nM
GI50 [6]: 564 nM
TGI [6]: 1760 nM
GI50 [7]: 230 nM
TGI [7]: 478 nM
GI50 [8]: 211 nM
TGI [8]: 528 nM
GI50 [9]: 215 nM
TGI [9]: 462 nM
GI50 [10]: 1530 nM
TGI [10]: 3.07 µM
GI50 [11]: 867 nM
TGI [11]: 2810 nM
GI50 [12]: 1900 nM
TGI [12]: 4.71 µM
GI50 [13]: 250 nM
TGI [13]: 707 nM
GI50 [14]: 1840 nM
TGI [14]: 4.51 µM
GI50 [15]: 216 nM
TGI [15]: 573 nM
GI50 [16]: 291 nM
TGI [16]: 861 nM
GI50 [17]: 651 nM
TGI [17]: 1910 nM
GI50 [18]: 2290 nM
TGI [18]: 4.7 µM
GI50 [19]: 212 nM
TGI [19]: 502 nM
GI50 [20]: 215 nM
TGI [20]: 515 nM
GI50 [21]: 310 nM
TGI [21]: 881 nM
GI50 [22]: 495 nM
TGI [22]: 1870 nM
GI50 [23]: 1990 nM
TGI [23]: 4.64 µM
GI50 [24]: 1430 nM
TGI [24]: 3.35 µM
GI50 [25]: 261 nM
TGI [25]: 690 nM
GI50 [26]: 1090 nM
TGI [26]: 3.44 µM
GI50 [27]: 296 nM
TGI [27]: 868 nM
GI50 [28]: 323 nM
TGI [28]: 1120 nM
GI50 [29]: 787 nM
TGI [29]: 2290 nM
GI50 [30]: 369 nM
TGI [30]: 1800 nM
GI50 [31]: 741 nM
TGI [31]: 2120 nM
GI50 [32]: 793 nM
TGI [32]: 2630 nM
GI50 [33]: 2010 nM
TGI [33]: 4.1 µM
GI50 [34]: 1510 nM
TGI [34]: 3.19 µM
GI50 [35]: 1230 nM
TGI [35]: 2830 nM
GI50 [36]: 1570 nM
TGI [36]: 3.16 µM
GI50 [37]: 622 nM
TGI [37]: 1520 nM
GI50 [38]: 1620 nM
TGI [38]: 3.31 µM
GI50 [39]: 269 nM
TGI [39]: 787 nM
GI50 [40]: 222 nM
TGI [40]: 541 nM
GI50 [41]: 185 nM
TGI [41]: 413 nM
GI50 [42]: 720 nM
TGI [42]: 1910 nM
GI50 [43]: 184 nM
TGI [43]: 368 nM
GI50 [44]: 1340 nM
TGI [44]: 2940 nM
GI50 [45]: 1800 nM
TGI [45]: 3.7 µM
GI50 [46]: 1010 nM
TGI [46]: 2720 nM
